Laboratory results as given in patent US4673747A, “Aminoalkylphenoxy derivatives” (Ikeda Mohando Co., Ltd., priority 1984, dated 1987).

Assays:
[1] = test system: Gastric acid secretion induced by histamine; test: Inhibition effect on gastric acid secretion induced by histamine in pylorus ligated rat (subcutaneous); format: in vivo, rat (male Wistar); conditions: histamine 3 mg/kg SC, average of five runs, * p<0.05, ** p<0.01 vs control group, read-out: Secretion of Gastric Acid in Rat, Inhibition Rate (%); for inhibition in vivo at 0.2 mg/kg: 0.2 mg/kg SC
Procedure: A male Wistar rat having a body weight of about 160 g and which had not fed for 24 hours was anesthetized by an intraperitonea dose of 1.2 g/kg of uretane. After ligating of pylorus and esophagus, the gaster anterior was incised and fitted with a double polyethylene cannula. The wall of the stomach was rinsed with 5 ml of saline at 30 minute intervals, and the quantities of gastric acid contained in each rinsing solution were measured by titration.
The basal acid secretion was initially measured three times, and then 0.2 mg/kg or 0.5 mg/kg of each of the compounds of this invention was administered subcutaneously and 3 mg/kg of histamine was administered subcutaneously after the lapse of an additional 30 minutes.
The quantity of gastric acid secreated after the operation was measured continuously for 3 hours. Within that measurement interval, three time points at which the increase in acid secretion reached a maximum level were selected, and the average quantity of gastric acid secreted at those time points was taken as the increase in acid secretion, which was compared with the increase in acid secretion of the control group to calculate the percent inhibition for secretion of gastric acid. [formula] (The result was shown as the average value of five runs.)

[2] = molecular target: T1, Histamine H2-Receptor (Cavia porcellus, UniProt P47747); design: species or system guinea pig (male Hartley); conditions: isolated guinea pig atrium; negative logarithm of molar concentration; heart beats, histamine dose-response; read-out: Antagonistic Action against Histamine H2-Receptor (pA2) Determined by Using Atrium isolated from Guinea Pig (converted)
T1 construct: from tissue; host or cells: isolated atrium of male Hartley guinea pig
Procedure: A male Hartley guinea pig having a body weight of about 400 g was killed by cervical dislocation, and the artrium thereof was isolated and was suspended in an organ bath containing 50 ml of a modified Ringer solution and subjected to a tension of 1 g. The number of heart beats under such condition was recorded using a polygraph.
Initially, from 1×10^-7 mol to 3×10^-4 mol of histamine was allowed to act accumulatively to depict the curve of the dosage-reaction relationship. Likewise, the curve of the dosage of histamine-reaction relationship was depicted in the presence of 5×10^-7 mol to 1×10^-6 mol of the test sample which was injected 3 minutes before. The negative logarithm (pA2) of the molar concentration of the test sample required for moving the curve obtained by single administration of histamine parallel to the right side by a two-times concentration was calculated.

[3] = test system: Gastric acid secretion induced by histamine; test: Inhibitory effect of intraduodenally administered compounds on gastric acid secretion induced by histamine in rat; format: in vivo, rat (male Wistar); conditions: intraduodenal, rat; for ED50: 0.5 h, 30 minutes before SC histamine, read-out: Median effective dose (ED50), Gastric Acid Secretion; for Efficacy Ratio relative to Cimetidine (Cimetidine = 1): from ED50; for ED50 value: times as effective as Cimetidine (activity ratio): text discussing Table 2

T1 sequence (P47747 whole entry): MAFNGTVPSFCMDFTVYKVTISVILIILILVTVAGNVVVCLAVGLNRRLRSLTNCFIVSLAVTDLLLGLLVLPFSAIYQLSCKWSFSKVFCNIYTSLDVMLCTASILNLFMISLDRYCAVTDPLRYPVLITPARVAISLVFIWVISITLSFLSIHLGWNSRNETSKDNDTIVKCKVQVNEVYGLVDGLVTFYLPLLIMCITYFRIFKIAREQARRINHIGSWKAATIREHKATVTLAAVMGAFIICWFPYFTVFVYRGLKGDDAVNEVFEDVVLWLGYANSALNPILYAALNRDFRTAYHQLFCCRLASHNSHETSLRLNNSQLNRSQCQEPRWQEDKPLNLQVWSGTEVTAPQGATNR

Molecule C#CCNc1c(NC/C=C\COc2cccc(CN3CCCCC3)c2)c(=O)c1=O [Ex. 4, 1-(2-propagylamino)-2-[4-<3-(1-piperidinomethyl)phenoxy>-cis-2-butenylamino]-1-cyclobuten-3,4-dione] has an inhibition in vivo at 0.2 mg/kg [1] of 66% and a Kb [2] of 776 nM.

For Nc1c(NC/C=C/COc2cccc(CN3CCCCC3)c2)c(=O)c1=O [Ex. 6, 1-amino-2-[4-<3-(1-piperidinomethyl)phenoxy>-trans-2-butenylamino]-1-cyclobuten-3,4-dione], the inhibition in vivo at 0.2 mg/kg [1] was 25% and the Kb [2] was 178 nM.

CNc1c(NC/C=C/COc2cccc(CN3CCCCC3)c2)c(=O)c1=O [Ex. 7, 1-methylamino-2-[4-<3-(1-piperidinomethyl)phenoxy>-trans-2-butenylamino]-1-cyclobuten-3,4-dione] was tested, and the inhibition in vivo at 0.2 mg/kg [1] was 28% and the Kb [2] was 513 nM.

For Nc1c(NC/C=C\COc2cccc(CN3CCCC3)c2)c(=O)c1=O [Ex. 8, 1-amino-2-[4-<3-(1-pyrrolidinomethyl)phenoxy>-cis-2-butenylamino]-1-cyclobuten-3,4-dione], the ED50 [3] was 0.07 mg/kg, the “Efficacy Ratio relative to Cimetidine (Cimetidine = 1)” value (“Efficacy Ratio relative to Cimetidine” for short) [3] was 10.3 and the inhibition in vivo at 0.2 mg/kg [1] was 88%. It also gave a Kb [2] of 151 nM.

Nc1n[nH]c(=O)nc1NC/C=C/COc1cccc(CN2CCCCC2)c1 [Ex. 11, 6-amino-5-[4-<3-(1-piperidinomethyl)phenoxy>-trans-2-butenylamino]-1,2,4-triazin-3-one] was tested, and the ED50 [3] was 0.44 mg/kg, the “Efficacy Ratio relative to Cimetidine” value [3] was 16.4 and the inhibition in vivo at 0.2 mg/kg [1] was 88%. It also gave a Kb [2] of 661 nM.

Molecule CNc1nn(C)c(=O)nc1NC/C=C/COc1cccc(CN2CCCCC2)c1 [Ex. 12, 2-methyl-6-methylamino-5-[4-<3-(1-piperidinomethyl)phenoxy>-trans-2-butenylamino]-1,2,4-triazin-3-one] has an inhibition in vivo at 0.2 mg/kg [1] of 44% and a Kb [2] of 1510 nM.

Cn1c(NC/C=C/COc2cccc(CN3CCCCC3)c2)cc(N)nc1=O [Ex. 14, 1-methyl-4-amino-6-[4-<3-(1-piperidinomethyl)phenoxy>-trans-2-butenylamino]-(1H)-pyrimidin-2-one] showed an inhibition in vivo at 0.2 mg/kg [1] of -9% and a Kb [2] of 7080 nM.

For Nc1n[s+]([O-])nc1NC/C=C\COc1cccc(CN2CCCCC2)c1 (stereo not drawn) [Ex. 15], the ED50 [3] was 0.066 mg/kg, the “Efficacy Ratio relative to Cimetidine” value [3] was 109.1 and the “ED50 value: times as effective as Cimetidine (activity ratio)” value (from here on “ED50 value: times … (activity ratio)”) [3] was roughly 110 times. For the same molecule, the inhibition in vivo at 0.5 mg/kg ([1]; 0.5 mg/kg SC) was 98% and the Kb [2] was 437 nM.

In the case of Nc1n[s+]([O-])nc1NC/C=C\COc1cccc(CN2CCCC2)c1 (stereo not drawn) [Ex. 17, 3-amino-4-[4-<3-(1-pyrrolidinomethyl)phenoxy>-cis-2-butenylamino]-1,2,5-thiadiazole-1-oxide], the ED50 [3] is reported as 0.82 mg/kg, the “Efficacy Ratio relative to Cimetidine” value [3] is reported as 8.8 and the inhibition in vivo at 0.2 mg/kg [1] is reported as 86%. It also gave a Kb [2] of 97.7 nM.

For CC(C)Nc1n[s+]([O-])nc1NC/C=C\COc1cccc(CN2CCCCC2)c1 (stereo not drawn) [Ex. 19, 3-isopropylamino-4-[4-<3-(1-piperidinomethyl)phenoxy>-cis-2-butenylamino]-1,2,5-thiadiazole-1-oxide], the ED50 [3] was 0.88 mg/kg, the “Efficacy Ratio relative to Cimetidine” value [3] was 8.2 and the inhibition in vivo at 0.2 mg/kg [1] was 82%. For the same molecule, the Kb [2] was 2400 nM.

In the case of CCCNc1n[s+]([O-])nc1NC/C=C\COc1cccc(CN2CCCCC2)c1 (stereo not drawn) [Ex. 20, 3-n-propylamino-4-[4-<3-(1-piperidinomethyl)phenoxy>-cis-2-butenylamino]-1,2,5-thiadiazol-1-oxide], the ED50 [3] is reported as 0.58 mg/kg, the “Efficacy Ratio relative to Cimetidine” value [3] is reported as 9.0 and the inhibition in vivo at 0.2 mg/kg [1] is reported as 88%. For the same molecule, the Kb [2] was 389 nM.

With CN(C)Cc1cccc(OC/C=C\CNc2n[s+]([O-])nc2N)c1 (stereo not drawn) [Ex. 21, 3-<4-(3-dimethylaminomethylphenoxy)-cis-2-butenylamino>-4-amino-1,2,5-thiadiazole-1-oxide] the ED50 [3] was 2 mg/kg, the “Efficacy Ratio relative to Cimetidine” value [3] was 3.6 and the inhibition in vivo at 0.2 mg/kg [1] was 99%. For the same molecule, the Kb [2] was 229 nM.

In the case of CNc1n[s+]([O-])nc1NC/C=C\COc1cccc(CN(C)C)c1 (stereo not drawn) [Ex. 22, 3-<4-(3-dimethylaminomethylphenoxy)-cis-2-butenylamino>-4-methylamino-1,2,5-thiadiazole-1-oxide], the ED50 [3] is reported as 0.62 mg/kg, the “Efficacy Ratio relative to Cimetidine” value [3] is reported as 11.6 and the inhibition in vivo at 0.2 mg/kg [1] is reported as 88%. For the same molecule, the Kb [2] was 316 nM.

For Nc1nnc(NC/C=C/COc2cccc(CN3CCCCC3)c2)s1 [Ex. 25, 2-amino-5-[4-<3-(1-piperidinomethyl)phenoxy>-trans-2-butenylamino]-1,3,4-thiadiazole], the inhibition in vivo at 0.2 mg/kg [1] was 77% and the Kb [2] was 204 nM.

CNc1nnc(NC/C=C/COc2cccc(CN3CCCCC3)c2)s1 [Ex. 26, 2-methylamino-5-[4-<3-(1-piperidinomethyl)-phenoxy>-trans-2-butenylamino]-1,3,4-thiadiazole] showed an inhibition in vivo at 0.2 mg/kg [1] of 45% and a Kb [2] of 9550 nM.

In the case of Nc1nnc(NC/C=C\COc2cccc(CN3CCCCC3)c2)s1 [Ex. 27, 2-amino-5-[4-<3-(1-piperidinomethyl)-phenoxy>-cis-2-butenylamino]-1,3,4-thiadiazole], the ED50 [3] is reported as 0.45 mg/kg, the “Efficacy Ratio relative to Cimetidine” value [3] is reported as 16.0 and the inhibition in vivo at 0.2 mg/kg [1] is reported as 87%. For the same molecule, the Kb [2] was 490 nM.

In the case of CNc1nnc(NC/C=C\COc2cccc(CN3CCCCC3)c2)s1 [Ex. 28, 2-methylamino-5-[4-<3-(1-piperidinomethyl)-phenoxy>-cis-2-butenylamino]-1,3,4-thiadiazole], the ED50 [3] is reported as 0.62 mg/kg, the “Efficacy Ratio relative to Cimetidine” value [3] is reported as 11.6 and the inhibition in vivo at 0.2 mg/kg [1] is reported as 75%. It also gave a Kb [2] of 4680 nM.

Nc1nnc(NC/C=C\COc2cccc(CN3CCCC3)c2)s1 [Ex. 29, 2-amino-5-[4-<3-(1-pyrrolidinomethyl)-phenoxy>-cis-2-butenylamino]-1,3,4-thadiazole] showed an inhibition in vivo at 0.2 mg/kg [1] of 36% and a Kb [2] of 316 nM.

CNc1nnc(NC/C=C\COc2cccc(CN3CCCC3)c2)s1 [Ex. 30, 2-methylamino-5-[4-<3-(1-pyrrolidinomethyl)-phenoxy>-cis-2-butenylamino]-1,3,4-thiadiazole] showed an inhibition in vivo at 0.2 mg/kg [1] of 17% and a Kb [2] of 550 nM.

For CC1CCCCN1Cc1cccc(OC/C=C\CNc2c(N)c(=O)c2=O)c1 (stereo not drawn) [Ex. 33, 1-amino-2-[4-{3-<1-(2-methylpiperidino)-methyl>phenoxy}-cis-2-butenylamino]-1-cyclobutene-3,4-dione], the ED50 [3] was 0.4 mg/kg, the “Efficacy Ratio relative to Cimetidine” value [3] was 18.0 and the inhibition in vivo at 0.2 mg/kg [1] was 70%. The Kb [2] was 166 nM.

For CC1CCCN(Cc2cccc(OC/C=C\CNc3c(N)c(=O)c3=O)c2)C1 (stereo not drawn) [Ex. 34, 1-amino-2-[4-{3-<1-(3-methylpiperidino)methyl>phenoxy}-cis-2-butenylamino]-1-cyclobutene-3,4-dione], the ED50 [3] was 0.17 mg/kg, the “Efficacy Ratio relative to Cimetidine” value [3] was 42.1 and the inhibition in vivo at 0.2 mg/kg [1] was 100%. For the same molecule, the Kb [2] was 70.8 nM.

For CC1CCN(Cc2cccc(OC/C=C\CNc3c(N)c(=O)c3=O)c2)CC1 [Ex. 35, 1-amino-2-[4-{3-<1-(4-methylpiperidino)methyl>phenoxy}-cis-2-butenylamino]-1-cyclobutene-3,4-dione], the ED50 [3] was 0.38 mg/kg, the “Efficacy Ratio relative to Cimetidine” value [3] was 18.9 and the inhibition in vivo at 0.2 mg/kg [1] was 98%. It also gave a Kb [2] of 263 nM.

In the case of O=c1c(NC/C=C\COc2cccc(CN3CCCCC3)c2)c(NCc2cccnc2)c1=O [Ex. 37, 1-(3-pyridylmethylamino)-2-[4-<3-(1-piperidinomethyl)phenoxy>-cis-2-butenylamino]-1-cyclobutene-3,4-dione], the ED50 [3] is reported as 0.074 mg/kg, the “Efficacy Ratio relative to Cimetidine” value [3] is reported as 97.3 and the inhibition in vivo at 0.2 mg/kg [1] is reported as 90%. The Kb [2] was 646 nM.

With NC1=NS(=O)(=O)N=C1NC/C=C\COc1cccc(CN2CCCCC2)c1 [Reference Ex. 1, 3-amino-4-[4-<3-(1-piperidinomethyl)phenoxy>-cis-2-butenylamino]-1,2,5-thiadiazole-1,1-dioxide, reference compound] the ED50 [3] was 0.2 mg/kg, the “Efficacy Ratio relative to Cimetidine” value [3] was 36.0 and the “ED50 value: times … (activity ratio)” value [3] was 36 times.

With CNC1=NS(=O)(=O)N=C1NC/C=C\COc1cccc(CN2CCCCC2)c1 [Reference Ex. 2, 3-methylamino-4-[4-<3-(1-piperidinomethyl)phenoxy>-cis-2-butenylamino]-1,2,5-thiadiazole-1,1-dioxide, reference compound] the ED50 [3] was 0.44 mg/kg, the “Efficacy Ratio relative to Cimetidine” value [3] was 16.4 and the “ED50 value: times … (activity ratio)” value [3] was 16 times.
